Laboratory results: patent publication US20240287138A1, “CYCLIC PEPTIDES FOR INHIBITING TNF RECEPTOR 1 ACTIVITY” (Merck Sharp & Dohme LLC, priority 2023, published 2024)
Where two headings read alike, the source gives them in different places. Numbered stars: 1 amine (or outer) side, 2 acyl side, 3 side chain; on linkers, the order of the positions; unused ones are H or OH. Bridge positions count the residues as written; N and C are the ends. Square brackets hold non-standard residues; d marks the D form. Peptide text beside a SMILES is read from it. Trp(βS-Me,7-OMe) = COc1cccc2c([C@H](C)[C@H](N)C(=O)O)c[nH]c12; Phe(4-SO2NH2) = N[C@@H](Cc1ccc(S(N)(=O)=O)cc1)C(=O)O; Phe(2-F,4-COOH) = N[C@@H](Cc1ccc(C(=O)O)cc1F)C(=O)O; Trp(7-CN) = N#Cc1cccc2c(C[C@H](N)C(=O)O)c[nH]c12; Trp(7-Cl) = N[C@@H](Cc1c[nH]c2c(Cl)cccc12)C(=O)O; Ala(pyrimidin-5-yl) = N[C@@H](Cc1cncnc1)C(=O)O; Phe(3-CONH2) = NC(=O)c1cccc(C[C@H](N)C(=O)O)c1; Phe(4-CONH2) = NC(=O)c1ccc(C[C@H](N)C(=O)O)cc1; Phe(4-COOH) = N[C@@H](Cc1ccc(C(=O)O)cc1)C(=O)O; Trp(7-aza) = N[C@@H](Cc1c[nH]c2ncccc12)C(=O)O; X9 = CN(C)[C@@H]1C[C@H](C(=O)[*:2])N([*:1])C1; Pip(5R-OH) = O=C(O)[C@@H]1CC[C@@H](O)CN1; X1 = O=C([C@@H]1CC[C@H](N[*:1])C1)[*:2]; Nle(5,5-F2) = CC(F)(F)CC[C@H](N)C(=O)O; NMeT = CN[C@H](C(=O)O)[C@@H](C)O; Pip(4-aza) = O=C(O)[C@@H]1CNCCN1; 4Pal = N[C@@H](Cc1ccncc1)C(=O)O; NMeE = CN[C@@H](CCC(=O)O)C(=O)O; dHyp = O=C(O)[C@H]1C[C@H](O)CN1; Cit = NC(=O)NCCC[C@H](N)C(=O)O; Ahp(2) = CCCCC[C@H](N)C(=O)O; NEtAla = CCN[C@@H](C)C(=O)O; Pip = O=C(O)[C@@H]1CCCCN1; αMeS = C[C@](N)(CO)C(=O)O; Nle = CCCC[C@H](N)C(=O)O; Sar = CNCC(=O)O

Tests used:
[1] = molecular target: T1, human TNFR1 extracellular domain (ECD) protein (Homo sapiens, UniProt P19438); assay: SPR binding affinity to captured human TNFR1 ECD
T1 construct: HRV 3C protease cleavage site (C); 6His (C, cleaved yes); made in house; host or cells: Sf21 insect cells (baculovirus), secreted
T1 sequence (P19438 30-211): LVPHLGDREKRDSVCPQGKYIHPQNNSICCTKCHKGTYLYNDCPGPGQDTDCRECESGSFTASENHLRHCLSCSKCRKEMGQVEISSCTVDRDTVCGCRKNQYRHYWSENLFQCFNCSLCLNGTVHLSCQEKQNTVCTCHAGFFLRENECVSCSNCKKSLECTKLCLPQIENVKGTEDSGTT
Summary of the method: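 Insect-cell human receptor ECDs, enzymatically biotinylated, immobilized via streptavidin capture chip. Peptide binding and dissociation measured in RU in pH 7.4 HEPES buffer containing 2% DMSO; chip regenerated per analyte. Rate constants give affinity.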

[2] = molecular target: T2, TNFα-induced NF-κB signal transduction pathway (TNFR1 signaling) in THP-1 cells (Homo sapiens, UniProt P19438); assay: THP-1 Lucia NF-κB reporter cell assay, inhibition of TNFα-induced NF-κB signaling; type: cell-based; conditions: THP-1 NF-κB Lucia reporter cells, 10 ng/mL TNFα, 16-18 h, secreted luciferase; read-out: THP-1 IC50
T2 sequence (P19438 30-455): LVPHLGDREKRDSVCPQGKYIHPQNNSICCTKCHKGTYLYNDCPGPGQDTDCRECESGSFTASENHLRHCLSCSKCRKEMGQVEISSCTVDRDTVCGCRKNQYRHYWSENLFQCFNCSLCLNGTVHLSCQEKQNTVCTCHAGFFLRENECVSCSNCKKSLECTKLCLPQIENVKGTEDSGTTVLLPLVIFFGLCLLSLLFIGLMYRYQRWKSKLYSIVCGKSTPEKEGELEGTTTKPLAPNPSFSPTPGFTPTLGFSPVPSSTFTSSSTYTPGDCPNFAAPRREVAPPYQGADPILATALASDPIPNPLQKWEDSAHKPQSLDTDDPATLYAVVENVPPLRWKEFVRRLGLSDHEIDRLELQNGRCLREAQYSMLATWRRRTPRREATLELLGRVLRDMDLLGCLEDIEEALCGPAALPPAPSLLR
Summary of the method: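 Macrocyclic peptides were preincubated 1 h at 37 °C with THP-1 NF-κB-Lucia reporter cells (20,000 cells/well) in antibiotic-free RPMI 1640/10% FBS, then stimulated with 10 ng/mL human TNFα overnight (16-18 h). Secreted luciferase in supernatant was read by luminescence; IC50 from 4-parameter logistic fits.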

[3] = biotinylated human TNFR1 ECD on streptavidin chip, from kon and koff, read-out: SPR hTNFR1 KD

SMILES	Kd [1, 3] [nM]	IC50 [2] [nM]	Kd [1] [nM]
CCCC[C@@H]1NC(=O)[C@@H]2CC[C@@H](C2)NC(=O)[C@H]([C@@H](C)c2c[nH]c3c(OC)cccc23)NC(=O)CN(C)C(=O)[C@H](Cc2ccc(C(=O)O)cc2F)NC(=O)[C@H](Cc2ccc(S(N)(=O)=O)cc2)NC(=O)[C@](C)(CO)NC(=O)[C@H](Cc2c[nH]c3c(C#N)cccc23)NC(=O)[C@H](Cc2ccc(C(=O)O)cc2F)NC(=O)[C@H](CC(N)=O)NC(=O)[C@H]2C[C@H](O)CN2C(=O)[C@H](Cc2c[nH]c3ncccc23)NC(=O)[C@@H]2CC[C@@H](O)CN2C(=O)[C@H](Cc2cncnc2)NC1=O [SEQ ID NO. 51] (cyclo(N[Phe(2-F,4-COOH)][Trp(7-CN)][αMeS][Phe(4-SO2NH2)][Phe(2-F,4-COOH)][Sar][Trp(βS-Me,7-OMe)][X1][Nle][Ala(pyrimidin-5-yl)][Pip(5R-OH)][Trp(7-aza)][dHyp]))	0.08	0.4	
CCCCC[C@@H]1NC(=O)[C@@H]2CC[C@@H](C2)NC(=O)[C@H]([C@@H](C)c2c[nH]c3c(OC)cccc23)NC(=O)CN(C)C(=O)[C@H](Cc2cccc(C(N)=O)c2)NC(=O)[C@H](Cc2ccc(C(N)=O)cc2)NC(=O)[C@](C)(CO)NC(=O)[C@H](Cc2c[nH]c3c(C#N)cccc23)NC(=O)[C@H](Cc2ccc(C(=O)O)cc2)NC(=O)[C@H](CC(N)=O)NC(=O)[C@H]2C[C@@H](N(C)C)CN2C(=O)[C@H](Cc2c[nH]c3ccccc23)NC(=O)[C@@H]2CC[C@@H](O)CN2C(=O)[C@H](Cc2ccncc2)NC1=O [SEQ ID NO. 84] (cyclo([4Pal][Pip(5R-OH)]W[X9]N[Phe(4-COOH)][Trp(7-CN)][αMeS][Phe(4-CONH2)][Phe(3-CONH2)][Sar][Trp(βS-Me,7-OMe)][X1][Ahp(2)]))		0.6	0.02
CCCC[C@@H]1NC(=O)[C@@H]2CC[C@@H](C2)NC(=O)[C@H]([C@@H](C)c2c[nH]c3c(OC)cccc23)NC(=O)CN(C)C(=O)[C@H](Cc2ccc(C(N)=O)cc2)NC(=O)[C@H](Cc2ccc(C(N)=O)cc2)NC(=O)[C@](C)(CO)NC(=O)[C@H](Cc2c[nH]c3c(C#N)cccc23)NC(=O)[C@H](Cc2ccc(C(=O)O)cc2)NC(=O)[C@H](CC(N)=O)NC(=O)[C@H]2C[C@H](O)CN2C(=O)[C@H](Cc2c[nH]c3ccccc23)NC(=O)[C@@H]2CC[C@@H](O)CN2C(=O)[C@H](Cc2ccncc2)NC1=O [SEQ ID NO. 45] (cyclo([4Pal][Pip(5R-OH)]W[dHyp]N[Phe(4-COOH)][Trp(7-CN)][αMeS][Phe(4-CONH2)][Phe(4-CONH2)][Sar][Trp(βS-Me,7-OMe)][X1][Nle]))	0.01	0.6	
CCCC[C@@H]1NC(=O)CSC[C@@H](C(N)=O)NC(=O)[C@H]([C@@H](C)c2c[nH]c3c(OC)cccc23)NC(=O)CN(C)C(=O)[C@H](Cc2ccc(O)cc2)NC(=O)[C@H](Cc2ccc(C(=O)O)cc2)NC(=O)[C@](C)(CO)NC(=O)[C@H](Cc2c[nH]c3c(Cl)cccc23)NC(=O)[C@H](Cc2ccncc2)NC(=O)[C@H](CC(N)=O)NC(=O)[C@H](CCC(=O)O)N(C)C(=O)[C@H](Cc2c[nH]c3ncccc23)NC(=O)[C@H]([C@@H](C)O)N(C)C(=O)[C@H](Cc2ccncc2)NC1=O [SEQ ID NO. 29] ({CH2CO}-[Nle][4Pal][NMeT][Trp(7-aza)][NMeE]N[4Pal][Trp(7-Cl)][αMeS][Phe(4-COOH)]Y[Sar][Trp(βS-Me,7-OMe)]C-NH2; thioether N-14)		3.3	0.28
COc1cccc2c([C@H](C)[C@@H]3NC(=O)CN(C)C(=O)[C@H](Cc4cccc(C(N)=O)c4)NC(=O)[C@H](Cc4ccc(C(=O)O)cc4)NC(=O)[C@](C)(CO)NC(=O)[C@H](Cc4c[nH]c5c(Cl)cccc45)NC(=O)[C@H](Cc4ccncc4)NC(=O)[C@H](CC(N)=O)NC(=O)[C@H]4C[C@H](O)CN4C(=O)[C@H](Cc4c[nH]c5ccccc45)NC(=O)[C@@H]4CC[C@@H](O)CN4C(=O)[C@H](Cc4ccncc4)NC(=O)[C@H](CCCNC(N)=O)NC(=O)[C@@H]4CC[C@@H](C4)NC3=O)c[nH]c12 [SEQ ID NO. 54] (cyclo([4Pal][Trp(7-Cl)][αMeS][Phe(4-COOH)][Phe(3-CONH2)][Sar][Trp(βS-Me,7-OMe)][X1][Cit][4Pal][Pip(5R-OH)]W[dHyp]N))		1.8	0.07
COc1cccc2c([C@H](C)[C@@H]3NC(=O)CN(C)C(=O)[C@H](Cc4ccc(O)cc4)NC(=O)[C@H](Cc4ccc(C(=O)O)cc4)NC(=O)[C@](C)(CO)NC(=O)[C@H](Cc4c[nH]c5c(Cl)cccc45)NC(=O)[C@H](Cc4ccncc4)NC(=O)[C@H](CC(N)=O)NC(=O)[C@H](CCC(=O)O)N(C)C(=O)[C@H](Cc4c[nH]c5ccccc45)NC(=O)[C@@H]4CNCCN4C(=O)[C@H](Cc4ccncc4)NC(=O)[C@H](CCC(C)(F)F)NC(=O)[C@@H]4CC[C@@H](C4)NC3=O)c[nH]c12 [SEQ ID NO. 275] (cyclo([4Pal][Trp(7-Cl)][αMeS][Phe(4-COOH)]Y[Sar][Trp(βS-Me,7-OMe)][X1][Nle(5,5-F2)][4Pal][Pip(4-aza)]W[NMeE]N))		1.4	0.3
CCCC[C@@H]1NC(=O)[C@@H]2CC[C@@H](C2)NC(=O)[C@H]([C@@H](C)c2c[nH]c3c(OC)cccc23)NC(=O)CN(C)C(=O)[C@H](Cc2cccc(C(N)=O)c2)NC(=O)[C@H](Cc2ccc(C(=O)O)cc2)NC(=O)[C@](C)(CO)NC(=O)[C@H](Cc2c[nH]c3c(Cl)cccc23)NC(=O)[C@H](Cc2ccncc2)NC(=O)[C@H](CC(N)=O)NC(=O)[C@H](CCC(=O)O)N(C)C(=O)[C@H](Cc2c[nH]c3ccccc23)NC(=O)[C@@H]2CCCCN2C(=O)[C@H](Cc2ccncc2)NC1=O [SEQ ID NO. 221] (cyclo([4Pal][Pip]W[NMeE]N[4Pal][Trp(7-Cl)][αMeS][Phe(4-COOH)][Phe(3-CONH2)][Sar][Trp(βS-Me,7-OMe)][X1][Nle]))	0.14	1	
CCCC[C@@H]1NC(=O)[C@@H]2CC[C@@H](C2)NC(=O)[C@H]([C@@H](C)c2c[nH]c3c(OC)cccc23)NC(=O)CN(C)C(=O)[C@H](Cc2ccc(C(=O)O)cc2)NC(=O)[C@H](Cc2ccc(C(N)=O)cc2)NC(=O)[C@](C)(CO)NC(=O)[C@H](Cc2c[nH]c3c(Cl)cccc23)NC(=O)[C@H](Cc2ccncc2)NC(=O)[C@H](CC(N)=O)NC(=O)[C@H]2C[C@H](O)CN2C(=O)[C@H](Cc2c[nH]c3ccccc23)NC(=O)[C@@H]2CNCCN2C(=O)[C@H](Cc2ccncc2)NC1=O [SEQ ID NO. 83] (cyclo([4Pal][Trp(7-Cl)][αMeS][Phe(4-CONH2)][Phe(4-COOH)][Sar][Trp(βS-Me,7-OMe)][X1][Nle][4Pal][Pip(4-aza)]W[dHyp]N))	0.09	0.6	
CCCC[C@@H]1NC(=O)CSC[C@@H](C(N)=O)NC(=O)[C@H]([C@@H](C)c2c[nH]c3c(OC)cccc23)NC(=O)CN(C)C(=O)[C@H](Cc2ccc(O)cc2)NC(=O)[C@H](Cc2ccc(C(=O)O)cc2)NC(=O)[C@](C)(CO)NC(=O)[C@H](Cc2c[nH]c3c(Cl)cccc23)NC(=O)[C@H](Cc2ccncc2)NC(=O)[C@H](CC(N)=O)NC(=O)[C@H](CCC(=O)O)N(C)C(=O)[C@H](Cc2c[nH]c3ncccc23)NC(=O)[C@H](C)N(CC)C(=O)[C@H](Cc2ccncc2)NC1=O [SEQ ID NO. 38] ({CH2CO}-[Nle][4Pal][NEtAla][Trp(7-aza)][NMeE]N[4Pal][Trp(7-Cl)][αMeS][Phe(4-COOH)]Y[Sar][Trp(βS-Me,7-OMe)]C-NH2; thioether N-14)		3.1	0.34
CCCC[C@@H]1NC(=O)[C@@H]2CC[C@@H](C2)NC(=O)[C@H]([C@@H](C)c2c[nH]c3c(OC)cccc23)NC(=O)CN(C)C(=O)[C@H](Cc2ccc(C(=O)O)cc2)NC(=O)[C@H](Cc2ccc(C(N)=O)cc2)NC(=O)[C@](C)(CO)NC(=O)[C@H](Cc2c[nH]c3c(Cl)cccc23)NC(=O)[C@H](Cc2ccncc2)NC(=O)[C@H](CC(N)=O)NC(=O)[C@H]2C[C@H](O)CN2C(=O)[C@H](Cc2c[nH]c3ccccc23)NC(=O)[C@@H]2CC[C@@H](O)CN2C(=O)[C@H](Cc2ccncc2)NC1=O [SEQ ID NO. 53] (cyclo([4Pal][Trp(7-Cl)][αMeS][Phe(4-CONH2)][Phe(4-COOH)][Sar][Trp(βS-Me,7-OMe)][X1][Nle][4Pal][Pip(5R-OH)]W[dHyp]N))	0.02	0.6	
